Measurements published in patent US20030059878A1, “Novel purinoceptor and gene thereof” (TANABE SEIYAKU CO., LTD, priority 2001, published 2003).

Target: T1, fusion protein of TG0022 protein and Giαl (^351Cys→Ile) (Homo sapiens, UniProt P63096+Q9BPV8, C351I)
T1 construct: made in house; host or cells: Sf9 (Spodoptera frugiperda) insect cells, baculovirus vector pVL1392; membrane fraction
Test: [35S]GTPγS binding to membrane fraction containing fusion protein of TG0022 protein and Giαl (351Cys→Ile)
Type: biochemical
Conditions: Sf9 membrane fraction, TG0022-Giαl (351Cys→Ile) fusion; relative to control without test compound (FIG. 4)
Description: It was assumed that TG0022 protein would be a G protein-coupled receptor as is disclosed in Example 1. Then, by using a membrane fraction containing a fusion protein of TG0022 protein and G protein, the identification of ligand was done by a method of detecting a ligand-dependent binding with GTPγS (guanosine 5′-O-(3-thiotriphosphate)) (Wenzel-Seifert et al., Mol. Pharmacol., Vol. 58, pp. 954-966, 2000; Bahia et al., Biochemistry, Vol. 37, pp. 11555-11562, 1998).
The Sf9 cells were inoculated in a 10 cm plate which was coated with collagen so as to be about 70% confluency, and thereto were added Virus Solution III obtained above (100 μl) and a medium (12 ml), and the mixture was cultivated at 27° C. for 4 days. […]
The membrane fraction obtained in the above (2) (450 μl) was suspended into a reaction buffer (7.54 ml), and thereto was added GDP (10 mM, 10 μl). […] The filter was washed with a cooled reaction buffer (200 μl) three times, and the amount of [^35S]GTPγS (amount bound to the membrane fraction) on the filter was measured by a liquid scintillator. […] GTPγS was calculated by reducting an amount of non-specifically bound [^35S] GTPγS (which was measured in the presence of 10 μM GTPγS) from the amount of [^35S]GTPγS obtained above.

T1 sequence (Q9BPV8+P63096 fused P63096:C351I): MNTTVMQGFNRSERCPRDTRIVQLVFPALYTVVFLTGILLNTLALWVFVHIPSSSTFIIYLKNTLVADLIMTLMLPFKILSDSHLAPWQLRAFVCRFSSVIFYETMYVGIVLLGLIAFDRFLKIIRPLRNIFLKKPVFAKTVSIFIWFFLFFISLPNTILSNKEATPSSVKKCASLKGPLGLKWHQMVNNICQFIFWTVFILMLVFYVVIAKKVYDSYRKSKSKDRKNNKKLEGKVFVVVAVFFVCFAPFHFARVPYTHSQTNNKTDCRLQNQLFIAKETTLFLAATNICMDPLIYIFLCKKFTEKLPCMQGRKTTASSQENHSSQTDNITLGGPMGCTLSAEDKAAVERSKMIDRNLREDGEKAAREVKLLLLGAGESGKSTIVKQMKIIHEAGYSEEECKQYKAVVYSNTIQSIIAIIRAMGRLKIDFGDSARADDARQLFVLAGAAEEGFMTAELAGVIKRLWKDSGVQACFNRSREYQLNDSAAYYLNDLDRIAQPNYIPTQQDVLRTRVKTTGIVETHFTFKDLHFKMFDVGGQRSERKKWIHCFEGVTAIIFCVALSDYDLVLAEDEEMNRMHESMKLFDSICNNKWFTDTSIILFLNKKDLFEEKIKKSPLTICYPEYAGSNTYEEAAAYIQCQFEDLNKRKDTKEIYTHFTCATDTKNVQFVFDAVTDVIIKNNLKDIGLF

Compound | specific binding amount of [^35S] GTPγS
Nc1ncnc2c1ncn2[C@@H]1O[C@H](COP(=O)(O)OP(=O)(O)OP(=O)(O)O)[C@@H](O)[C@H]1O [ATP] | increased dependent on the concentration
Nc1ncnc2c1ncn2[C@@H]1O[C@H](COP(=O)(O)OP(=O)(O)O)[C@@H](O)[C@H]1O [ADP] | increased dependent on the concentration
